Experimental data reported in US11214803B2, “Modulators of YAP1 expression” (Ionis Pharmaceuticals, Inc., priority 2019, dated 2022).
Strand notation (5' to 3'): a small letter for the sugar, then the base; units joined by * are phosphorothioate-linked, units joined directly phosphodiester-linked; [ ] holds rarer units or linkages, { } end groups; capitals alone tell only the bases. e = 2'-O-(2-methoxyethyl) (MOE); k = constrained ethyl (cEt); [5mC] = 5-methylcytosine; d = 2'-deoxy (DNA); m = 2'-O-methyl

Legend:
Type in all cases: cell-based
Yap1 mRNA [1] = test: Dose-dependent inhibition of human Yap1 in SNU-449 cells (Example 9, RTS36584); conditions: free uptake; for % UTC (Yap1 mRNA): approximately 48 hours; for IC50: linear regression on a log/linear plot
Experimental: Modified oligonucleotides described in the studies above were tested at various doses in SNU-449 cells. Cultured SNU-449 cells at a density of 10,000 cells per well were treated using free uptake with modified oligonucleotides diluted to concentrations described in the tables below. After approximately 48 hours, Yap1 mRNA levels were measured as previously described using the Human Yap1 primer-probe set RTS36584. Yap1 mRNA levels were normalized to total RNA content, as measured by RIBOGREEN®. Results are presented in the tables below as percent control of the amount of Yap1 mRNA relative to untreated control cells (% UTC). IC50s were calculated using a linear regression on a log/linear plot of the data in excel.

Yap1 mRNA [2] = test: Antisense inhibition of human Yap1 in A-431 cells by cEt gapmers, single dose (Example 3, RTS36584)
How it was run: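 Human epidermoid A-431 cells take up gapmer (2,000 nM, free uptake, ~48 h); Yap1 transcript is then assayed by qRT-PCR with RiboGreen normalization and reported relative to untreated cells. Gapmers carry cEt-modified wings, phosphorothioate linkages and 5-methylcytosine throughout.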

Yap1 mRNA [3] = test: Antisense inhibition of human Yap1 in SNU-449 cells by modified oligonucleotides, single dose (Example 5, RTS36584)
How it was run: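 Each modified oligonucleotide is applied by free uptake to SNU-449 cultures at 2,000 nM, and total RNA is harvested around 48 h later. Yap1 transcript, quantified with the RTS36584 set and corrected for RIBOGREEN RNA content, is given as % UTC. Asterisks mark sequences overlapping the amplicon.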

Yap1 mRNA [4] = test: Dose-dependent inhibition of human Yap1 in A-431 cells (Example 8, 10,000 cells per well, RTS4814); conditions: for % UTC (Yap1 mRNA) / IC50: A-431 cells; for Yap1 mRNA, % UTC: A-431 cells, 10,000 cells per well
How it was run: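 Yap1 mRNA, normalized to RIBOGREEN total RNA and expressed as % untreated control, was read with RTS4814 about 48 h after free-uptake oligonucleotide treatment of A-431 cells at 10,000 cells/well. IC50 derived by linear regression of log/linear data.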

[5] = Yap1 mRNA, percent of untreated control, modified oligonucleotides targeting SEQ ID NO: 1 and 2, Table 47
[6] = Table 13, A-431 cells, 5,000 cells per well, free uptake, 2,000 nM modified oligonucleotide, approx. 48 hours, RTS36584, normalized to RIBOGREEN, Yap1 mRNA relative to untreated control cells
[7] = Table 28, Yap1 mRNA as percent of untreated control, 3-10-3 cEt gapmers targeting SEQ ID NO.: 1, and 2
[8] = 31.3 nM, free uptake, approximately 48 hours, RTS4814
[9] = 125.0 nM, free uptake, approximately 48 hours, RTS4814
[10] = 500.0 nM, free uptake, approximately 48 hours, RTS4814
[11] = 2000.00 nM, free uptake, approximately 48 hours, RTS4814
[12] = free uptake, approximately 48 hours, RTS4814, linear regression on log/linear plot
[13] = Table 29, Yap1 mRNA as percent of untreated control, 3-10-3 cEt gapmers targeting SEQ ID NO.: 1, and 2

Substance | % UTC (Yap1 mRNA) (Yap1 mRNA [1]; 31.3 nM) [% UTC] | % UTC (Yap1 mRNA) (Yap1 mRNA [1]; 125.0 nM) [% UTC] | % UTC (Yap1 mRNA) (Yap1 mRNA [1]; 500.0 nM) [% UTC] | % UTC (Yap1 mRNA) (Yap1 mRNA [1]; 2000.00 nM) [% UTC] | IC50 (Yap1 mRNA [1]) [nM] | Yap1 mRNA, % UTC (Yap1 mRNA [4]; [8]) [% UTC] | Yap1 mRNA, % UTC (Yap1 mRNA [4]; [9]) [% UTC] | Yap1 mRNA, % UTC (Yap1 mRNA [4]; [10]) [% UTC] | Yap1 mRNA, % UTC (Yap1 mRNA [4]; [11]) [% UTC] | IC50 (Yap1 mRNA [4]; [12]) [nM] | also measured
1197313 (kA*kG*kT*dG*mU*dA*dT*dG*dT*d[5mC]*dA*dG*dA*kA*kG*kA; antisense) [compound 1197313] | 71 | 38 | 16 | 6 | 100 |  |  |  |  |  | 
1197176 (kT*kG*kT*d[5mC]*dT*d[5mC]*dA*dT*dG*d[5mC]*d[5mC]*dT*dT*kA*kT*kA; antisense) [compound 1197176] | 66 | 37 | 19 | 6 | 100 |  |  |  |  |  | 
1198918 (kG*k[5mC]*dA*d[5mC]*dT*dT*dT*dT*dA*d[5mC]*dA*kT*dT*kA*dG*kG) [compound 1198918] | 60 | 33 | 13 | 9 | 50 |  |  |  |  |  | 
1198398 (G_{ks}^{m}C_{ds}A_{ds}C_{ds}T_{ds}T_{ds}T_{ds}T_{ds}A_{ds}^{m}C_{ds}A_{ds}T_{ks}T_{es}A_{ks}G_{es}G_{k}; cEt, 2'-MOE, 5-methylcytosine, phosphorothioate modifications, as printed in the source, key not given here) [compound 1198398] | 73 | 55 | 33 | 18 | 200 |  |  |  |  |  | 
1198805 (kA*kT*dT*dG*dT*d[5mC]*dT*d[5mC]*dA*dT*dG*k[5mC]*e[5mC]*kT*eT*kA; antisense) [compound 1198805] | 61 | 42 | 20 | 7 | 100 |  |  |  |  |  | 
1198268 (kA*kA*dG*dT*dG*dT*dA*dT*dG*dT*d[5mC]*eA*eG*eA*kA*kG; antisense) [compound 1198268] | 83 | 52 | 17 | 5 | 100 |  |  |  |  |  | 
1200803 (kG*kG*kT*dA*dT*mA*dA*d[5mC]*dT*dG*dG*dG*d[5mC]*kA*kA*kA; antisense) [compound 1200803] | 72 | 52 | 34 | 18 | 200 |  |  |  |  |  | 
1198424 (k[5mC]*dT*d[5mC]*dT*dT*dA*dT*dA*dT*dG*dG*kT*eT*kT*eT*kG; antisense) [compound 1198424] | 64 | 44 | 24 | 9 | 100 |  |  |  |  |  | 
1198718 (kG*eA*kA*dA*dT*dT*dG*dT*d[5mC]*dT*d[5mC]*dA*eT*eG*k[5mC]*k[5mC]; antisense) [compound 1198718] | 87 | 37 | 14 | 4 | 100 |  |  |  |  |  | 
958497 (kA*kT*kA*dT*dG*dG*dA*dA*dA*dT*dT*dG*dT*k[5mC]*kT*k[5mC]) [Compound 958497] |  |  |  |  |  |  |  |  |  |  | YAP1 (% UTC) (Yap1 mRNA [2]; Table 10, A-431 cells, 5,000 cells per well, free uptake, 2,000 nM oligonucleotide, approx. 48 hours, primer probe set RTS36584, Yap1 mRNA normalized to RIBOGREEN, percent of untreated control): 1 % UTC; YAP1 (% UT) (Yap1 mRNA [3]; [5]): 20 % UT
958500 (kT*k[5mC]*kT*dA*dT*dA*dT*dT*dA*dG*dA*dG*dT*kA*kT*kG) [Compound 958500] |  |  |  |  |  |  |  |  |  |  | YAP1 (% UTC) (Yap1 mRNA [2]; [6]): 5 % UTC; YAP1 (% UT) (Yap1 mRNA [3]; [5]): 53 % UT
958590 (kA*kG*kG*dT*dA*dT*dA*dA*d[5mC]*dT*dG*dG*dG*k[5mC]*kA*kA) [Compound 958590] |  |  |  |  |  |  |  |  |  |  | YAP1 (% UTC) (Yap1 mRNA [2]; [6]): 2 % UTC; YAP1 (% UT) (Yap1 mRNA [3]; Table 48, Yap1 mRNA level relative to untreated control, modified oligonucleotides targeting SEQ ID NO.: 1 and 2): 18 % UT
1076085 (kA*k[5mC]*kT*dA*dA*dT*dA*dG*dG*d[5mC]*d[5mC]*dA*dT*k[5mC]*kT*kG; antisense) [compound 1076085] |  |  |  |  |  |  |  |  |  |  | YAP1 (% UTC) (Yap1 mRNA [2]; Table 35, Yap1 mRNA as percent of untreated control, 3-10-3 cEt gapmers targeting SEQ ID NO: 1 and 2, single dose): 7 % UTC; % UTC (Yap1 mRNA) (Yap1 mRNA [4]; 31.3 nM): 70 % UTC; % UTC (Yap1 mRNA) (Yap1 mRNA [4]; 125.0 nM): 34 % UTC; % UTC (Yap1 mRNA) (Yap1 mRNA [4]; 500.0 nM): 14 % UTC; % UTC (Yap1 mRNA) (Yap1 mRNA [4]; 2000.00 nM): 9 % UTC; IC50 (Yap1 mRNA [4]; Yap1 mRNA): 100 nM
1074222 (antisense kA*kG*kG*dA*dA*dT*dG*dA*dG*d[5mC]*dT*d[5mC]*dG*kA*kA*k[5mC]) [compound 1074222] |  |  |  |  |  | 59 | 21 | 8 | 5 | < 20 | YAP1 (% UTC) (Yap1 mRNA [2]; [7]): 5 % UTC
1076494 (k[5mC]*kT*kA*dA*dT*dT*dG*dA*dA*dG*d[5mC]*dT*dG*kG*k[5mC]*kA; antisense) [compound 1076494] |  |  |  |  |  | 34 | 7 | 3 | 2 | < 20 | YAP1 (% UTC) (Yap1 mRNA [2]; [7]): 3 % UTC
1075983 (kA*kT*k[5mC]*dG*dA*dA*dA*dA*dG*d[5mC]*dA*dA*dA*k[5mC]*kT*k[5mC]; antisense) [compound 1075983] |  |  |  |  |  | 81 | 46 | 17 | 6 | 100 | YAP1 (% UTC) (Yap1 mRNA [2]; [13]): 5 % UTC
1074446 (kA*kT*kG*dA*dT*dA*dG*d[5mC]*dA*d[5mC]*dT*dA*dG*kG*kA*kG; antisense) [compound 1074446] |  |  |  |  |  | 39 | 11 | 5 | 3 | < 20 | YAP1 (% UTC) (Yap1 mRNA [2]; [7]): 3 % UTC
1076399 (antisense kG*kA*kT*dA*dA*d[5mC]*dT*dT*dA*dG*dA*dG*dA*kT*kG*kT) [compound 1076399] |  |  |  |  |  | 60 | 29 | 11 | 6 | 40 | YAP1 (% UTC) (Yap1 mRNA [2]; [13]): 4 % UTC
1076397 (antisense kA*kA*k[5mC]*d[5mC]*dT*dA*dT*dA*dT*dT*dT*dG*dA*kG*k[5mC]*k[5mC]) [compound 1076397] |  |  |  |  |  | 43 | 14 | 5 | 4 | < 20 | YAP1 (% UTC) (Yap1 mRNA [2]; Table 27, Yap1 mRNA by 3-10-3 cEt gapmers targeting SEQ ID NO.: 1, and 2, percent of untreated control): 4 % UTC
